The nature of series [1]: Retention time of compound by LC-MS analysis.
For series [2], the system named is U-87 MG. The series is described as follows: Cytotoxicity against human U87MG cells treated with MJ02 assessed as reduction in cell survival after 96 hrs by MTT assay. It is filed as functional, cell-based, U-87MG ATCC. In general terms: Tetrazolium dyes change colour on reduction, which living cells bring about.
Series [3] has as its target T1, Matrix metalloproteinase-9 (Homo sapiens, UniProt P14780). The series is described as follows: Prodrug activation assessed as recombinant human MMP9-mediated Cbz-Glu-Pro-Leu-Gly formation at 10 uM after 12 hrs by LC-MS analysis.
In series [4] the target is T1, Matrix metalloproteinase-9. As to the kind of experiment: Prodrug activation assessed as recombinant human MMP9-mediated Ser(O-benzyl)-Tyr-Leu-doxorubicin formation at 10 uM after 12 hrs by LC-MS analysis.
Series [5] addresses T2, 72 kDa type IV collagenase (Homo sapiens, UniProt P08253). As to the kind of experiment: Prodrug activation assessed as recombinant human MMP2-mediated Ser(O-benzyl)-Tyr-Leu-doxorubicin formation at 10 uM after 12 hrs by LC-MS analysis.
Series [6] concerns the target T3, Matrix metalloproteinase-14 (Homo sapiens, UniProt P50281). As to the kind of experiment: Prodrug activation assessed as recombinant human MMP14-mediated Cbz-Glu-Pro-Leu-Gly metabolite at 10 uM after 12 hrs by LC-MS analysis. It is filed as ADME.
Series [7] addresses T3, Matrix metalloproteinase-14. The series is described as follows: Prodrug activation assessed as recombinant human MMP14-mediated Ser(O-benzyl)-Tyr-Leu-doxorubicin formation at 10 uM after 12 hrs by LC-MS analysis.
Series [8] deals with T2, 72 kDa type IV collagenase. The series is described as follows: Prodrug activation assessed as recombinant human MMP2-mediated Cbz-Glu-Pro-Leu-Gly formation at 10 uM after 12 hrs by LC-MS analysis.
Series [9] has as its system U-87 MG. As to the kind of experiment: Cytotoxicity against human U87MG cells assessed as reduction in cell survival after 96 hrs by MTT assay. Type of series: functional, cell-based, U-87MG ATCC.
Series [10] is described as follows: Retention time of compound by RP-HPLC analysis.
The subject of series [11] is Liver. As to the kind of experiment: Prodrug activation in Balb/c immunodeficient nude mouse xenografted with human HT1080 cells assessed as half life for prodrug in liver after 60 mins by LC-MS analysis. It is filed as tissue-based. The settings on record: 1 h. (A xenograft is tissue or cells of one species grown in another, often human tumour cells in immunodeficient mice.)

Series [12] is described as follows: Prodrug activation in Balb/c immunodeficient nude mouse xenografted with human HT1080 cells assessed as half life for prodrug in tumor homogenates after 60 mins by LC-MS analysis. Type of series: tissue-based, Neoplasm. The settings on record: tissue homogenate, 1 h.
Series [13] has as its system Kidney. The series is described as follows: Prodrug activation in Balb/c immunodeficient nude mouse xenografted with human HT1080 cells assessed as half life for prodrug in kidney after 60 mins by LC-MS analysis. The settings on record: 1 h. It is filed as tissue-based.
The test system of series [14] is Plasma. As to the kind of experiment: Prodrug activation in Balb/c immunodeficient nude mouse xenografted with human HT1080 cells assessed as half life for prodrug in plasma after 60 mins by LC-MS analysis. It is filed as cell-free. The settings on record: 1 h.
Series [15] has as its target T2, 72 kDa type IV collagenase. The series is described as follows: Prodrug activation assessed as recombinant human MMP2-mediated Leu-doxorubicin formation at 10 uM after 12 hrs by LC-MS analysis.
Series [16] concerns the target T1, Matrix metalloproteinase-9. The series is described as follows: Prodrug activation assessed as recombinant human MMP9-mediated compound cleavage at 10 uM after 12 hrs by LC-MS analysis.
In series [17] the test system is U-87 MG. As to the kind of experiment: Cytotoxicity against human U87MG cells treated with MJ02 assessed as reduction in cell survival after 96 hrs in presence of MMP inhibitor GM6001 by MTT assay. It is filed as functional, cell-based, U-87MG ATCC.
The target in series [18] is T3, Matrix metalloproteinase-14. The series is described as follows: Prodrug activation assessed as recombinant human MMP14-mediated compound cleavage at 10 uM after 12 hrs by LC-MS analysis.
Series [19] addresses T2, 72 kDa type IV collagenase. As to the kind of experiment: Prodrug activation assessed as recombinant human MMP2-mediated Cbz-Gly-Pro-Ile-Gln-Glu-Hof formation at 10 uM after 12 hrs by LC-MS analysis.

Where a SMILES comes first, the peptide text is derived from it. [ ]: non-standard residue; d: D form. The star is where a group is joined. ξ: configuration not given here. X1 = COc1cccc2c1C(=O)c1c(O)c3c(c(O)c1C2=O)C[C@](O)(C(=O)CO)C[C@H]3O[C@@H]1C[C@@H](N*)[C@H](O)[C@@H](C)O1; X2 = COc1cccc2c1C(=O)c1c(O)c3c(c(O)c1C2=O)C[C@@](O)(C(=O)CO)C[C@@H]3O[C@H]1C[C@H](N*)[C@@H](O)[C@H](C)O1; Dnp = O=[N+]([O-])c1ccc(*)c([N+](=O)[O-])c1; ξhPhe = NC(CCc1ccccc1)C(=O)O; ξCha = NC(CC1CCCCC1)C(=O)O; Cbz = O=C(OCc1ccccc1)*; Bn = c1ccc(C*)cc1

T1 sequence (P14780 whole entry): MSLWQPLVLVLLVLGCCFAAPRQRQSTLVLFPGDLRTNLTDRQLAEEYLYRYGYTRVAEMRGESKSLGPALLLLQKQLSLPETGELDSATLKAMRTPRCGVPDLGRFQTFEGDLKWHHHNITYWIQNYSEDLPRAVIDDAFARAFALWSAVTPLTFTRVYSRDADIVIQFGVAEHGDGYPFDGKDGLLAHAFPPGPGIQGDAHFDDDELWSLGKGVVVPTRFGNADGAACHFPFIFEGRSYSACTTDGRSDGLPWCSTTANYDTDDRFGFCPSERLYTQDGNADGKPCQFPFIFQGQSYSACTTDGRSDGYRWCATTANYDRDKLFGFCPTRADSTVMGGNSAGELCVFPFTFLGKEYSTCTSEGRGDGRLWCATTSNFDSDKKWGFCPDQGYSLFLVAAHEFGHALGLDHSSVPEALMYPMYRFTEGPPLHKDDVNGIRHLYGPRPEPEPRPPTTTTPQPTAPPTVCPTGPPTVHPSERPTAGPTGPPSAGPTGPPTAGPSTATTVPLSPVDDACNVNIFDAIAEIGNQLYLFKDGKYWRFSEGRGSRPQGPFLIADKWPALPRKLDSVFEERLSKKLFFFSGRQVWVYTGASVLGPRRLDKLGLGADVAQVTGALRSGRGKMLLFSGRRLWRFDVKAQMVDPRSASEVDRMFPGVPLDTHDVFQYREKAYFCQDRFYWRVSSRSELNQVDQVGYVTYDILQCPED
T2 sequence (P08253 whole entry): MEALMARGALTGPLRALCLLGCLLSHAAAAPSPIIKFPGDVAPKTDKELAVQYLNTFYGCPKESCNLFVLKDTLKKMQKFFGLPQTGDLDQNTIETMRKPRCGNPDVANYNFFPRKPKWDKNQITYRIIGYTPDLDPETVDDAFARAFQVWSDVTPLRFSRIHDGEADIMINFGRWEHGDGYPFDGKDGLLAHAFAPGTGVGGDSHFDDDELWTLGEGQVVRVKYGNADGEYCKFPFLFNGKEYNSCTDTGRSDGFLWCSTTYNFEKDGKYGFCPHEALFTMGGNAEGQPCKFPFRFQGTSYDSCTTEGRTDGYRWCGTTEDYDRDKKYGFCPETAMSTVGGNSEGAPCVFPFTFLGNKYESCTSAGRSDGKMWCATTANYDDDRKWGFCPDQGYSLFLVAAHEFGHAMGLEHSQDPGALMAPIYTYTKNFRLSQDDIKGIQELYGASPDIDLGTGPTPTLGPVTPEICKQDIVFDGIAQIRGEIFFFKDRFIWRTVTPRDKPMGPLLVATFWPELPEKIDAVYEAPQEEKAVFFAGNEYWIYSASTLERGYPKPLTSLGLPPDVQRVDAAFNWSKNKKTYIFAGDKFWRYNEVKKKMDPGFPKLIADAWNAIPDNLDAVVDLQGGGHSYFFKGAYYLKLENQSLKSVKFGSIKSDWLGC

One may read the IC50 as the concentration that inhibits the measured activity by half. In [1], `COc1cccc2c1C(=O)c1c(O)c3c(c(O)c1C2=O)C[C@@](O)(C(=O)CO)C[C@@H]3O[C@H]1C[C@H](NC(=O)[C@@H](N)CC(C)C)[C@H](O)[C@H](C)O1` [LEURUBICIN] showed a Retention time of 2.08 min. For the same molecule, the IC50 in series [2] was determined as 600 nM.
Turning to `COc1cccc2c1C(=O)c1c(O)c3c(c(O)c1C2=O)C[C@@](O)(C(=O)CO)C[C@@H]3O[C@H]1C[C@H](NC(=O)[C@H](CC(C)C)NC(=O)[C@H](Cc2ccc(O)cc2)NC(=O)[C@H](COCc2ccccc2)NC(=O)CNC(=O)[C@H](CC(C)C)NC(=O)[C@@H]2CCCN2C(=O)[C@H](CCC(=O)O)NC(=O)OCc2ccccc2)[C@@H](O)[C@H](C)O1` (Cbz-EPLGS(Bn)YL-X2), the Drug metabolism entry in [3], in [4], in series [5], in series [6], in [7] and in series [8] was “Metabolite_Detected” throughout. The same molecule returned a Retention time in series [1] of 3.63 min.
`CC(C)C[C@H](NC(=O)[C@@H]1CCCN1C(=O)[C@H](CCC(=O)O)NC(=O)OCc1ccccc1)C(=O)NCC(=O)O` (Cbz-EPLG-OH) showed a Retention time in series [1] of 2.87 min.
`O=C(O)CNC(=O)C(CC1CCCCC1)NC(=O)[C@@H]1CCCN1c1ccc([N+](=O)[O-])cc1[N+](=O)[O-]` (stereo partly drawn) (Dnp-Pro-[ξCha]-Gly-OH) gave a Retention time in series [1] of 2.3 min.
The same measure, in the same setting: with `CC[C@H](C)[C@H](NC(=O)[C@@H]1CCCN1C(=O)CNC(=O)OCc1ccccc1)C(=O)N[C@@H](CCC(N)=O)C(=O)N[C@@H](CCC(=O)O)C(=O)NC(CCc1ccccc1)C(=O)O` (stereo partly specified) (Cbz-GPIQE[ξhPhe]-OH) the figure was 2.83 min.
Take `COc1cccc2c1C(=O)c1c(O)c3c(c(O)c1C2=O)C[C@@](O)(C(=O)CO)C[C@@H]3O[C@H]1C[C@H](N)[C@H](O)[C@H](C)O1` [DOXORUBICIN]: in series [9], the IC50 turned out to be 300 nM.
`COc1cccc2c1C(=O)c1c(O)c3c(c(O)c1C2=O)C[C@@](O)(C(=O)CO)C[C@@H]3O[C@H]1C[C@H](NC(=O)[C@H](CC(C)C)NC(=O)[C@H](Cc2ccc(O)cc2)NC(=O)[C@@H](N)COCc2ccccc2)[C@@H](O)[C@H](C)O1`: the Retention time in series [1] worked out at 3.23 min.
In series [1], `CNc1ccccc1C(=O)NCCCC[C@H](NC(=O)[C@H](C)NC(=O)[C@H](Cc1c[nH]cn1)NC(=O)[C@H](N)CSC)C(N)=O` returned a Retention time of 2.47 min.
`CC[C@H](C)[C@H](NC(=O)[C@@H]1CCCN1C(=O)CNC(=O)OCc1ccccc1)C(=O)N[C@@H](CCC(N)=O)C(=O)N[C@@H](CCC(=O)O)C(=O)NC(CCc1ccccc1)C(=O)N[C@@H](CC(C)C)C(=O)N[C@@H]1C[C@@H](O[C@@H]2C[C@@](O)(C(=O)CO)Cc3c(O)c4c(c(O)c32)C(=O)c2c(OC)cccc2C4=O)O[C@H](C)[C@H]1O` (stereo partly drawn) (Cbz-GPIQE[ξhPhe]L-X1): the Retention time in series [10] turned out to be 3.58 min. Further, the t1/2 result in [11] is “>= 17 min”; in [12], “>= 8.8 min”; in series [13], “>= 38.1 min”; in series [14] it was over 1.5 h. For the same molecule, the Drug metabolism entry in series [15] is “Metabolite_Detected”; in series [16] it was “Metabolite_Notdetected”; in [18] it was “Metabolite_Notdetected”; in [19] it was “Metabolite_Detected”. The IC50 is 5000 nM in series [9] and over 100000 nM in series [17].

The values are drawn from ChEMBL document CHEMBL4014318, “Rationalized Computer-Aided Design of Matrix-Metalloprotease-Selective Prodrugs” (J Med Chem, 2017).
